In ChEMBL document CHEMBL1201862, “PubChem BioAssay data set” (2004):
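Five concentrations, 48 hours, 96-well plates. At the GI50, growth is halved.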 Active and inactive are the calls of the source. No stated cut-off is given here; in the data, active = GI50 up to about 1.1 µM and inactive = higher.

How the values were obtained:
Assay in all cases: inhibition of tumour cell growth, NCI panel, 48 h
LXFL 529 = test system: LXFL 529
KM-20L2 = test system: KM-20L2
DMS-273 = test system: DMS-273
DMS-114 = test system: DMS-114
HOP-18 = test system: HOP-18
SNB-78 = test system: SNB-78
DLD-1 = test system: DLD-1
RXF 631 = test system: RXF 631
XF498 = test system: XF498

NC(=O)Cn1c(=O)[nH]c(=O)c2[nH]cnc21
GI50 (LXFL 529): > 100 µM (inactive)
GI50 (KM-20L2): > 100 µM (inactive)
GI50 (DMS-273): > 100 µM (inactive)
GI50 (DMS-114): > 100 µM (inactive)
GI50 (HOP-18): > 100 µM (inactive)

COC(=O)C(C(=O)C(=O)Nc1nnc(S)[nH]1)c1csc(-n2nc(-c3ccccc3)cc2-c2ccccc2)n1 (stereo unspecified)
GI50 (LXFL 529): > 100 µM (inactive)
GI50 (SNB-78): > 100 µM (inactive)
GI50 (DLD-1): > 100 µM (inactive)
GI50 (KM-20L2): > 100 µM (inactive)
GI50 (DMS-273): > 100 µM (inactive)

Cc1cccc(NC(=O)/C(=N\N)C(c2cnc3ccc([N+](=O)[O-])cc3n2)[N+](=O)[O-])c1C (stereo unspecified)
GI50 (RXF 631): > 100 µM (inactive)
GI50 (LXFL 529): > 100 µM (inactive)
GI50 (DLD-1): > 100 µM (inactive)
GI50 (KM-20L2): 71.8 µM (inactive)
GI50 (DMS-273): > 100 µM (inactive)
GI50 (DMS-114): 51.3 µM (inactive)
GI50 (HOP-18): > 100 µM (inactive)
GI50 (XF498): > 100 µM (inactive)

CC1=C2C(O)C(C(C)C(=O)NC(C)C)CCC2(C)C=CC1=O (stereo unspecified)
GI50 (SNB-78): > 100 µM (inactive)
GI50 (DLD-1): > 100 µM (inactive)
GI50 (KM-20L2): > 100 µM (inactive)
GI50 (DMS-273): > 100 µM (inactive)
GI50 (DMS-114): > 100 µM (inactive)
GI50 (HOP-18): > 100 µM (inactive)
GI50 (XF498): > 100 µM (inactive)

Cc1ccc(N2C(=O)C3CSCN3C2=O)cc1 (stereo unspecified)
GI50 (DLD-1): > 100 µM (inactive)
GI50 (DMS-114): > 100 µM (inactive)
GI50 (HOP-18): > 100 µM (inactive)
GI50 (XF498): > 100 µM (inactive)

COc1ccc(/C(Cl)=C(\C=O)c2ccc(F)cc2)cc1OC
GI50 (RXF 631): 19.9 µM (inactive)
GI50 (LXFL 529): 11.5 µM (inactive)
GI50 (SNB-78): 15.3 µM (inactive)
GI50 (DLD-1): 21.8 µM (inactive)
GI50 (KM-20L2): 16.2 µM (inactive)
GI50 (DMS-273): 27.4 µM (inactive)
GI50 (DMS-114): 14.4 µM (inactive)
GI50 (HOP-18): 12.9 µM (inactive)

O=C(N/N=C/c1cc(Br)cc(Br)c1O)c1ccccc1O
GI50 (KM-20L2): 2 µM (inactive)

COC(=O)c1cc(-c2cccn2C)c2c(c1C(=O)OC)c1ccccc1n2C
GI50 (RXF 631): 80.4 µM (inactive)
GI50 (LXFL 529): 40.2 µM (inactive)
GI50 (SNB-78): > 100 µM (inactive)
GI50 (DLD-1): 7.62 µM (inactive)
GI50 (DMS-273): 34.1 µM (inactive)
GI50 (DMS-114): 40.3 µM (inactive)
GI50 (HOP-18): > 100 µM (inactive)
GI50 (XF498): > 100 µM (inactive)

CCOC(=O)C(C)NC(=O)NC12CC3CC(CC(F)(C3)C1)C2 (stereo unspecified)
GI50 (LXFL 529): > 100 µM (inactive)
GI50 (SNB-78): 27.9 µM (inactive)
GI50 (DLD-1): > 100 µM (inactive)
GI50 (KM-20L2): > 100 µM (inactive)
GI50 (DMS-273): > 100 µM (inactive)
GI50 (DMS-114): > 100 µM (inactive)
GI50 (XF498): 27.4 µM (inactive)

COc1ccc2nc(-c3ccc(O)cc3)ccc2c1
GI50 (LXFL 529): > 100 µM (inactive)
GI50 (SNB-78): 97.1 µM (inactive)
GI50 (DLD-1): > 100 µM (inactive)
GI50 (KM-20L2): > 100 µM (inactive)
GI50 (DMS-114): > 100 µM (inactive)
GI50 (HOP-18): > 100 µM (inactive)

O=C(NC1C=Nc2ccc([N+](=O)[O-])cc2NC1=O)c1cc(Cl)cc([N+](=O)[O-])c1 (stereo unspecified)
GI50 (LXFL 529): > 100 µM (inactive)
GI50 (SNB-78): > 100 µM (inactive)
GI50 (DLD-1): > 100 µM (inactive)
GI50 (KM-20L2): > 100 µM (inactive)
GI50 (DMS-273): 99.5 µM (inactive)
GI50 (DMS-114): 19.7 µM (inactive)
GI50 (XF498): > 100 µM (inactive)

CC(=O)OC1CCC2(C)C3CCC4(C)C(c5ccc(=O)oc5)CC5OC54C3CCC2(O)C1 (stereo unspecified)
GI50 (SNB-78): 1.14 µM (inactive)
GI50 (DLD-1): 0.521 µM (active)
GI50 (KM-20L2): 2.15 µM (inactive)
GI50 (DMS-273): 0.798 µM (active)
GI50 (DMS-114): 0.109 µM (active)
GI50 (HOP-18): 0.461 µM (active)
GI50 (XF498): 2.92 µM (inactive)

N#CN=C(NCCO)NCCO
GI50 (RXF 631): > 100 µM (inactive)
GI50 (LXFL 529): > 100 µM (inactive)
GI50 (SNB-78): > 100 µM (inactive)
GI50 (DLD-1): > 100 µM (inactive)
GI50 (KM-20L2): > 100 µM (inactive)
GI50 (DMS-114): > 100 µM (inactive)
GI50 (HOP-18): 45.1 µM (inactive)
GI50 (XF498): > 100 µM (inactive)
